Experiments:
[1] = Half life in rat at 10 mg/kg, po; format: ADME, organism-based; conditions: in vivo
[2] = Cmax in rat at 10 mg/kg, po; format: ADME, organism-based; design: route oral, dose 10 mg/kg; conditions: in vivo
[3] = AUC (0 to infinity) in rat at 10 mg/kg, po; format: ADME, organism-based; design: time infinity, route oral, dose 10 mg/kg; conditions: in vivo
[4] = Oral bioavailability in rat at 10 mg/kg; format: ADME, organism-based; conditions: in vivo
[5] = Half life in rat at 1 mg/kg, iv; format: ADME, organism-based; conditions: in vivo
[6] = Cmax in rat at 1 mg/kg, iv; format: ADME, organism-based; design: route intravenous, dose 1 mg/kg; conditions: in vivo
[7] = Apparent volume of distribution in rat at 1 mg/kg, iv; format: ADME, organism-based; conditions: in vivo, read-out: Vz
[8] = Clearance in rat at 1 mg/kg, iv; format: ADME, organism-based; conditions: in vivo
[9] = biological target: Histone-lysine N-methyltransferase 2A (Homo sapiens) (UniProt Q03164); experiment: Inhibition of MLL1 (unknown origin) at 10 uM using SAM as substrate measured up to 960 mins by AlphaScreen microplate reader assay relative to control; conditions: time min <=960
[10] = biological target: Histone-lysine N-methyltransferase SETD7 (Homo sapiens) (UniProt Q8WTS6); experiment: Inhibition of SET7/9 (unknown origin) at 10 uM using SAM as substrate measured up to 960 mins by AlphaScreen microplate reader assay relative to control; conditions: time min <=960
[11] = biological target: Histone-lysine N-methyltransferase SUV39H2 (Homo sapiens) (UniProt Q9H5I1); experiment: Inhibition of SUV39H2 (unknown origin) at 10 uM using SAM as substrate measured up to 960 mins by AlphaScreen microplate reader assay relative to control; conditions: time min <=960
[12] = biological target: Protein arginine N-methyltransferase 1 (Homo sapiens) (UniProt Q99873); experiment: Inhibition of PRMT1 (unknown origin) at 10 uM using SAM as substrate measured up to 960 mins by AlphaScreen microplate reader assay relative to control; conditions: time min <=960
[13] = biological target: Histone-arginine methyltransferase CARM1 (Homo sapiens) (UniProt Q86X55); experiment: Inhibition of PRMT4 (unknown origin) at 10 uM using SAM as substrate measured up to 960 mins by AlphaScreen microplate reader assay relative to control; conditions: time min <=960
[14] = biological target: Protein arginine N-methyltransferase 6 (Homo sapiens) (UniProt Q96LA8); experiment: Inhibition of PRMT6 (unknown origin) at 10 uM using SAM as substrate measured up to 960 mins by AlphaScreen microplate reader assay relative to control; conditions: time min <=960
[15] = biological target: Protein arginine N-methyltransferase 8 (Homo sapiens) (UniProt Q9NR22); experiment: Inhibition of PRMT8 (unknown origin) at 10 uM using SAM as substrate measured up to 960 mins by AlphaScreen microplate reader assay relative to control; conditions: time min <=960
[16] = biological target: F-box only protein 11 (Homo sapiens) (UniProt Q86XK2); experiment: Inhibition of PRMT9 (unknown origin) at 10 uM using SAM as substrate measured up to 960 mins by AlphaScreen microplate reader assay relative to control; conditions: time min <=960
[17] = biological target: Histone-lysine N-methyltransferase NSD2 (Homo sapiens) (UniProt O96028); experiment: Inhibition of NSD2 (unknown origin) at 10 uM using SAM as substrate measured up to 960 mins by AlphaScreen microplate reader assay relative to control; conditions: time min <=960
[18] = biological target: Histone-lysine N-methyltransferase, H3 lysine-79 specific (Homo sapiens) (UniProt Q8TEK3); experiment: Inhibition of DOT1L (unknown origin) at 10 uM using SAM as substrate measured up to 960 mins by AlphaScreen microplate reader assay relative to control; conditions: time min <=960
[19] = biological target: N-lysine methyltransferase SMYD2 (Homo sapiens) (UniProt Q9NRG4); experiment: Inhibition of SMYD2 (unknown origin) at 10 uM using SAM as substrate measured up to 960 mins by AlphaScreen microplate reader assay relative to control; conditions: time min <=960
[20] = biological target: Histone-lysine N-methyltransferase EZH2 (Homo sapiens) (UniProt Q15910); experiment: Inhibition of EZH2 (unknown origin) at 10 uM using SAM as substrate measured up to 960 mins by AlphaScreen microplate reader assay relative to control; conditions: time min <=960
[21] = test system: Histone-lysine N-methyltransferase EZH2 (Homo sapiens), Q15910 [Y641F]; experiment: Inhibition of EZH2 Y641F mutant (unknown origin) at 10 uM using SAM as substrate measured up to 960 mins by AlphaScreen microplate reader assay relative to control; conditions: time min <=960
[22] = Antiproliferative activity against human WSUDLCL2 cells harboring EZH2 Y641F mutant assessed as inhibition of cell growth measured after 6 days by CellTiter-Glo luminescent assay; format: functional; conditions: WSUDLCL2, 144 h, time 6 day
KARPAS-422 [23] = experiment: Antiproliferative activity against human KARPAS-422 cells harboring EZH2 Y641N mutant assessed as inhibition of cell growth measured after 6 days by CellTiter-Glo luminescent assay; format: functional; conditions: KARPAS-422, 144 h, time 6 day
SUD4 = experiment: Antiproliferative activity against human SU-DHL-4 cells harboring EZH2 Y641S mutant assessed as inhibition of cell growth measured after 6 days by CellTiter-Glo luminescent assay; format: functional; conditions: SU-DHL-4, 144 h, time 6 day
KARPAS-422 [24] = experiment: Antitumor activity against human KARPAS-422 cells harboring EZH2 Y641N mutant xenografted in NCG mouse assessed as tumor growth inhibition at 50 mg/kg, po BID via gavage measured after 28 days relative to control; format: functional; conditions: KARPAS-422, po, 672 h, time 28 day, read-out: TGI
[25] = Toxicity in NCG mouse xenografted with human Pfeiffer cells harboring EZH2 A677G mutant assessed as effect on body weight at 50 to 200 mg/kg, po BID via gavage measured after 28 days; format: organism-based; conditions: in vivo, 672 h, dose 50-200 mg/kg, time 28 day
[26] = Half life in mouse at 10 mg/kg, po measured up to 24 hrs by LC-MS/MS analysis; format: ADME, organism-based; conditions: in vivo
[27] = Cmax in mouse at 10 mg/kg, po measured up to 24 hrs by LC-MS/MS analysis; format: ADME, organism-based; design: route oral, dose 10 mg/kg, time <=24; conditions: in vivo
[28] = AUC (0 to t) in mouse at 10 mg/kg, po measured up to 24 hrs by LC-MS/MS analysis; format: ADME, organism-based; design: route oral, dose 10 mg/kg, time <=24; conditions: in vivo
[29] = Clearance in mouse at 10 mg/kg, po measured up to 24 hrs by LC-MS/MS analysis; format: ADME, organism-based; conditions: in vivo
[30] = Oral bioavailability in mouse at 10 mg/kg measured up to 24 hrs by LC-MS/MS analysis; format: ADME, organism-based; conditions: in vivo
KARPAS-422 [31] = experiment: Antitumor activity against human KARPAS-422 cells harboring EZH2 Y641N mutant xenografted in NCG mouse assessed as change in tumor weight at 50 mg/kg, po BID via gavage measured after 28 days (reference value: 2.14 g); format: functional; conditions: time 28 day
KARPAS-422 [32] = experiment: Antitumor activity against human KARPAS-422 cells harboring EZH2 Y641N mutant xenografted in NCG mouse assessed as change in tumor weight at 100 mg/kg, po BID via gavage measured after 28 days (reference value: 2.14 g); format: functional; conditions: time 28 day
KARPAS-422 [33] = experiment: Antitumor activity against human KARPAS-422 cells harboring EZH2 Y641N mutant xenografted in NCG mouse assessed as change in tumor weight at 200 mg/kg, po BID via gavage measured after 28 days (reference value: 2.14 g); format: functional; conditions: time 28 day

Sequence of Histone-lysine N-methyltransferase SUV39H2 (Homo sapiens) (Q9H5I1 whole entry): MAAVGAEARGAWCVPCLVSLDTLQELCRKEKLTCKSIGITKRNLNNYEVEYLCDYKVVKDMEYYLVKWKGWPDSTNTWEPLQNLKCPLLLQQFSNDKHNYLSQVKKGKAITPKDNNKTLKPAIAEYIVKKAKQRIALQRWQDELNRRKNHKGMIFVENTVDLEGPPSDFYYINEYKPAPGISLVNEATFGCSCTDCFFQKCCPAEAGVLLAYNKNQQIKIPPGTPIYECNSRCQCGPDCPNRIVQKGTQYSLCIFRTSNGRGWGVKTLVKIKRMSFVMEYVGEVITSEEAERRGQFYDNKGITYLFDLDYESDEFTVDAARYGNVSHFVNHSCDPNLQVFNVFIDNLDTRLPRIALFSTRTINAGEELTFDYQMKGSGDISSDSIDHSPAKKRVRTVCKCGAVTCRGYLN
Sequence of Histone-lysine N-methyltransferase, H3 lysine-79 specific (Homo sapiens) (Q8TEK3 whole entry, looked up): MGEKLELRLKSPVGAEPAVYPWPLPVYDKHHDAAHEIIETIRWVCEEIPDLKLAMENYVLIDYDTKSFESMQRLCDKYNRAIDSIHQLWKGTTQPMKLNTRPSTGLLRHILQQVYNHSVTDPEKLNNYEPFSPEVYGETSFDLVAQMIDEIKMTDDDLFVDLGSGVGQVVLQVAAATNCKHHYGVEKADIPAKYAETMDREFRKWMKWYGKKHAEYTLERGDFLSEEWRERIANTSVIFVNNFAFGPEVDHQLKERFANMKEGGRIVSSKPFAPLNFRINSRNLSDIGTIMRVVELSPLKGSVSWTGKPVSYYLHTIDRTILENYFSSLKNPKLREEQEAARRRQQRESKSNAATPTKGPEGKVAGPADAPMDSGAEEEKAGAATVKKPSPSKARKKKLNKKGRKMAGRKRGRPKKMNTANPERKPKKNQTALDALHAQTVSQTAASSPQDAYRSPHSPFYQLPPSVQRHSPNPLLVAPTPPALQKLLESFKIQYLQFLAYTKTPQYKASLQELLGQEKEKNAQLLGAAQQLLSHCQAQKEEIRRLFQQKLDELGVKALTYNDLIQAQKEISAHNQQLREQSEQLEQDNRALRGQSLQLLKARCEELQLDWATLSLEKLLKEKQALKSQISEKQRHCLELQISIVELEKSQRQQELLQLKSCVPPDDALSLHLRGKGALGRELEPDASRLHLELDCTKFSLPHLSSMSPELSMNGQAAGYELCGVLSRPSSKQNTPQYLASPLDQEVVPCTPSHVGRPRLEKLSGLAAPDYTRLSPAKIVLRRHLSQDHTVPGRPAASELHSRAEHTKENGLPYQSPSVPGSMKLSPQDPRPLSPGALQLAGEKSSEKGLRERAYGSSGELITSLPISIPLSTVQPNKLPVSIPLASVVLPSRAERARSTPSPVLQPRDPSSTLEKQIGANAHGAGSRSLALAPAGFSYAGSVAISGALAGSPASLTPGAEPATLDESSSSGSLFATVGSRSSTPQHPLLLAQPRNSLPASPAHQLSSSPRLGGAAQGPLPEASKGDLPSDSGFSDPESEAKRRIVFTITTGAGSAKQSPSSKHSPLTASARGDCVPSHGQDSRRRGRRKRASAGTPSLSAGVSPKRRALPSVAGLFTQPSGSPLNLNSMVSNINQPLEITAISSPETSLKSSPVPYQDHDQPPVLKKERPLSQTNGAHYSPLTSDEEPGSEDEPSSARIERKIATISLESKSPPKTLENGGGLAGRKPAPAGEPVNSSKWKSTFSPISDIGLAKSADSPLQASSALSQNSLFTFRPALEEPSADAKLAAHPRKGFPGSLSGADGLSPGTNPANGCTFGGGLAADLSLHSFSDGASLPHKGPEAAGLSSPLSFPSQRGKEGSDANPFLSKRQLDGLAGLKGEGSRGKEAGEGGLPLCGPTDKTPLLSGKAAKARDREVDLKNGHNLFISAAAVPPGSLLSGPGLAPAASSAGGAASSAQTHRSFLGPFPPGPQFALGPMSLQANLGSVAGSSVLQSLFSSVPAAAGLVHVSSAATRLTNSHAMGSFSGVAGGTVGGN
Sequence of F-box only protein 11 (Homo sapiens) (Q86XK2 whole entry): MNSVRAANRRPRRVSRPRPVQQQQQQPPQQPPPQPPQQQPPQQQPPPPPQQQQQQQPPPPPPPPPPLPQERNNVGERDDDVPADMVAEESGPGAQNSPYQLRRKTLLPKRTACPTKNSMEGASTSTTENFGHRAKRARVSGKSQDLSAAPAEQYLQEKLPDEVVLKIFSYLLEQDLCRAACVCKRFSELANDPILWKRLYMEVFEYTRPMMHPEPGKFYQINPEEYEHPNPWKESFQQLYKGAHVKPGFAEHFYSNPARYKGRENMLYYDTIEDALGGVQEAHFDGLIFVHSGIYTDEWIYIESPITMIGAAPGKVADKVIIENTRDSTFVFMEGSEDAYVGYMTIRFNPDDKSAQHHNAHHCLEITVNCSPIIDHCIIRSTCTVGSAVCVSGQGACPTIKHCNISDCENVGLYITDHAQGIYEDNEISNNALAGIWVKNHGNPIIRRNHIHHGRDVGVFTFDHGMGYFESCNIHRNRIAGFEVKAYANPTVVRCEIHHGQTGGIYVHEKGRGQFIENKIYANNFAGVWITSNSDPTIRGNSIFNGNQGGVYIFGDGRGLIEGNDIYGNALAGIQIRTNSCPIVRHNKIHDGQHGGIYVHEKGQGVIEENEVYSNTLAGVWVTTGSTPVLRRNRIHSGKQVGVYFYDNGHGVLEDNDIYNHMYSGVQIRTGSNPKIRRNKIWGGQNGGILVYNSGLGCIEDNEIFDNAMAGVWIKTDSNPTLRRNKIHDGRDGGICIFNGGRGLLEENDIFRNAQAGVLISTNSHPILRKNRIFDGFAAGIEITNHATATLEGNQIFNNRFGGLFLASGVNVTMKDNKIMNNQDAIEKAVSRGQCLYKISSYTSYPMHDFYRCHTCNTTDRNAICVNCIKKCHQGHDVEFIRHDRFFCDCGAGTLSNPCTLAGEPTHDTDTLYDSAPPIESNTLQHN
Sequence of Protein arginine N-methyltransferase 1 (Homo sapiens) (Q99873 whole entry, looked up): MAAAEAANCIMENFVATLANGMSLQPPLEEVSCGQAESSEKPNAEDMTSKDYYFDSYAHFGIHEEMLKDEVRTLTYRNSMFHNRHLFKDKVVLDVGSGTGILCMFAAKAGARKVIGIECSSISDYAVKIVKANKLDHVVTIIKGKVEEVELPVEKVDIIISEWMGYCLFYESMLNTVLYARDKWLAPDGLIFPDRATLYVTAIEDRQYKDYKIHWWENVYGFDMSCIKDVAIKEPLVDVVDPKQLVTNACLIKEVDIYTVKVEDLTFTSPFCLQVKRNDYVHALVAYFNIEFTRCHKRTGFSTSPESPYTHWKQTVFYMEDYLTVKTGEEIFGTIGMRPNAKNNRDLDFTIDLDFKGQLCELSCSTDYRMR
Sequence of Histone-lysine N-methyltransferase NSD2 (Homo sapiens) (O96028 whole entry): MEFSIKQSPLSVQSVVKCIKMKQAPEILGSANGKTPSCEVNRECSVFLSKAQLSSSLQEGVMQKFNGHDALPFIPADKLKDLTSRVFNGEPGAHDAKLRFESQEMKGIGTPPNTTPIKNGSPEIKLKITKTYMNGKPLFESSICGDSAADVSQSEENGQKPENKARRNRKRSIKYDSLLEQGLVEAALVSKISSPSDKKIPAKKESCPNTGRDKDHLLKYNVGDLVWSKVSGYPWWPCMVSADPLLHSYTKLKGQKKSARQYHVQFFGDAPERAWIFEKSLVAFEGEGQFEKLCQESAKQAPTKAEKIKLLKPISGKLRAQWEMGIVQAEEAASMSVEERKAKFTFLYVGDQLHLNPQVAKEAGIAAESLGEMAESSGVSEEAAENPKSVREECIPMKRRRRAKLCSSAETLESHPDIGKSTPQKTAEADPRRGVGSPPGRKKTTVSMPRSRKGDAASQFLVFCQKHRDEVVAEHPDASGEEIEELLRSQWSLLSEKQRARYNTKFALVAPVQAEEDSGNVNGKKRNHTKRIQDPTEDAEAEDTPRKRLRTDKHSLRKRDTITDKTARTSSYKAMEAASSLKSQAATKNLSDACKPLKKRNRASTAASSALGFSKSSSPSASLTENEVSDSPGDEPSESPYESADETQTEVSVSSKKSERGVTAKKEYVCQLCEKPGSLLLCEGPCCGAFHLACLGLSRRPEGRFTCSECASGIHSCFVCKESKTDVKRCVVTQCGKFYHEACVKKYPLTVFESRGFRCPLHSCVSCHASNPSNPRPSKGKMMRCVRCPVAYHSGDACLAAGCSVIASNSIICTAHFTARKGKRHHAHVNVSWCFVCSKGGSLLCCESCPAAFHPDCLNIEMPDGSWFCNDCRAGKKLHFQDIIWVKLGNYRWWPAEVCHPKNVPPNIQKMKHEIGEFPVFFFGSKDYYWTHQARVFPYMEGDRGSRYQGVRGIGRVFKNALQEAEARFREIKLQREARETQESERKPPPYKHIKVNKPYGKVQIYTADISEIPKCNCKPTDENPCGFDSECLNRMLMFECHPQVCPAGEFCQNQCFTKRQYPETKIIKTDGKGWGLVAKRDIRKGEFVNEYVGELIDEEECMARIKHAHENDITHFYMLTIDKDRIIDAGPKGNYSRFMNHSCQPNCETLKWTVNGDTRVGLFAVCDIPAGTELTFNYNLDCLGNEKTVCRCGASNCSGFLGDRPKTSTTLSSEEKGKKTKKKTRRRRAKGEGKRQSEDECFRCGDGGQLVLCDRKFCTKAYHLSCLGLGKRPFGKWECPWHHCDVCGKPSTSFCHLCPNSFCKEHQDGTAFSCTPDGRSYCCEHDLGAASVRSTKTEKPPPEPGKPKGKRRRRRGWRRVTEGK
Sequence of Protein arginine N-methyltransferase 8 (Homo sapiens) (Q9NR22 2-394 limits assumed): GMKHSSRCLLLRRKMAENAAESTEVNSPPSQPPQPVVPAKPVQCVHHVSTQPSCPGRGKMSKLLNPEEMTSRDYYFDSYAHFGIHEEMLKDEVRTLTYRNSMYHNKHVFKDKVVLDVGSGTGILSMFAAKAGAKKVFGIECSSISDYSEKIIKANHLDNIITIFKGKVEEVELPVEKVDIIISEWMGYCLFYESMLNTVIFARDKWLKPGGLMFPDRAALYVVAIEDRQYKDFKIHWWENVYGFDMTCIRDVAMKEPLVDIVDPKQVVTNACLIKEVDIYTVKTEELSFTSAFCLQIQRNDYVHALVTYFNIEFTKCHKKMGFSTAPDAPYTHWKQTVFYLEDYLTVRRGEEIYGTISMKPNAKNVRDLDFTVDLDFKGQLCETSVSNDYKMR

CCN(C(=O)C1CC1)c1cc(-c2ccc(N3CCN(CC4CC4)CC3)nc2C)cc(C(=O)NCc2c(C)cc(C)[nH]c2=O)c1C
half-life [1]: 87 min
Cmax [2]: 240 ng/mL
AUC(0-inf) [3]: 604 ng·h/mL
bioavailability [4]: 31%
half-life [5]: 109 min
Cmax [6]: 406 ng/mL
Vd [7]: 9.1 L/kg
clearance [8]: 85.5 mL/min/kg
inhibition [9]: 12%
inhibition [10]: 3%
inhibition [11]: 8%
inhibition [12]: 7%
inhibition [13]: 0%
inhibition [14]: 0%
inhibition [15]: 0%
inhibition [16]: 9%
inhibition [17]: 10%
inhibition [18]: 0%
inhibition [19]: 0%
inhibition [20]: 100%
inhibition [21]: 99%
GI50 [22]: 140 nM
GI50 (KARPAS-422 [23]): 50 nM
GI50 (SUD4): 3.87 µM
inhibition in vivo at 50 mg/kg (KARPAS-422 [24]): 47.7%
Activity [25]: Non-Toxic
t1/2 [26]: 1.3 h
Cmax [27]: 671 ng/mL
AUC(0-t) at 24 h [28]: 1000 ng·h/mL
CL [29]: 165.9 mL/min/kg
bioavailability [30]: 27%
Activity (KARPAS-422 [31]): 1.17 g
Activity (KARPAS-422 [32]): 0.64 g
Activity (KARPAS-422 [33]): 0.057 g

Source: ChEMBL document CHEMBL4831544, “Discovery of IHMT-EZH2-115 as a Potent and Selective Enhancer of Zeste Homolog 2 (EZH2) Inhibitor for the Treatment of B-Cell Lymphomas” (J Med Chem, 2021)
